Experimental data from the supplement of paper PMC10307832.

Assays:
Experiment in all cases: relative viability (nuclei count vs DMSO), 5 days (fraction); higher = more cells survive
[1] = compound: CCC1=CN=CN=C1N2CCN(CC2)CC3=NC4=C(N3)C=C(C=C4)C(F)(F)F + COc1cccc2cc(-c3nc([C@H]4CC[C@H](C(=O)O)CC4)n4ncnc(N)c34)[nH]c12 [OSI-027] (partner 0.5 µM)
Procedure, shortened: (§1)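 Nuclei were stained with Hoechst during a one-step fixation (final 0.05% Triton X-100, 1% formaldehyde, 1 ug/ml Hoechst) carried out 5 days after dosing, then counted on 4× images. The cells, lung cancer lines in 1536-well plates, had been dosed by pin tool the day after seeding with one drug alone or a fixed anchor-drug dose plus five library-drug doses (not always all listed) in √10 steps. Relative viability is the nuclei count in treated wells divided by that in vehicle wells, and each value is the median of duplicate plates.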

[2] = compound: CCC1=CN=CN=C1N2CCN(CC2)CC3=NC4=C(N3)C=C(C=C4)C(F)(F)F + Nc1ncn([C@H]2C[C@H](O)[C@@H](CO)O2)c(=O)n1 [Decitabine] (partner 2 µM)
Procedure, shortened: as §1

[3] = compound: CCn1c(-c2nonc2N)nc2cnc(Oc3cccc(NC(=O)c4ccc(OCCN5CCOCC5)cc4)c3)cc21 + Nc1ncn([C@H]2C[C@H](O)[C@@H](CO)O2)c(=O)n1 [Decitabine] (partner 2 µM)
Procedure, shortened: as §1

Mirin + Foretinib = compound: N=C1NC(=O)/C(=C/c2ccc(O)cc2)S1 [Mirin] + COc1cc2c(Oc3ccc(NC(=O)C4(C(=O)Nc5ccc(F)cc5)CC4)cc3F)ccnc2cc1OCCCN1CCOCC1 [Foretinib] (partner 0.25 µM)
Procedure, shortened: as §1

| Cell Line | relative viability ([1]; first compound 0.04 µM) | relative viability ([1]; first compound 0.1265 µM) | relative viability ([1]; first compound 0.4 µM) | relative viability ([1]; first compound 1.265 µM) | relative viability ([1]; first compound 4 µM) | relative viability ([2]; first compound 0.04 µM) | relative viability ([2]; first compound 0.1265 µM) | relative viability ([2]; first compound 0.4 µM) | relative viability ([2]; first compound 1.265 µM) | relative viability ([2]; first compound 4 µM) | relative viability ([3]; first compound 0.04 µM) | relative viability ([3]; first compound 0.1265 µM) | relative viability ([3]; first compound 0.4 µM) | relative viability ([3]; first compound 1.265 µM) | relative viability ([3]; first compound 4 µM) | relative viability (Mirin + Foretinib; first compound 0.25 µM) | relative viability (Mirin + Foretinib; first compound 0.7906 µM) | relative viability (Mirin + Foretinib; first compound 2.5 µM) | relative viability (Mirin + Foretinib; first compound 7.906 µM) | relative viability (Mirin + Foretinib; first compound 25 µM) |
| --- | --- | --- | --- | --- | --- | --- | --- | --- | --- | --- | --- | --- | --- | --- | --- | --- | --- | --- | --- | --- |
| 201T | 0.737 | 0.752 | 0.748 | 0.664 | 0.747 | 0.823 | 0.813 | 0.879 | 0.869 | 0.819 | 0.825 | 0.834 | 0.823 | 0.86 | 0.827 | 1.1 | 1.24 | 1.17 | 1.06 | 1.17 |
| A549 | – | – | – | – | – | 0.277 | 0.121 | 0.237 | 0.265 | 0.247 | 0.219 | 0.304 | 0.272 | – | 0.108 | 0.89 | 1.02 | 0.902 | 0.956 | 1.04 |
| A-427 | 0.432 | 0.476 | 0.413 | 0.434 | 0.417 | 0.55 | 0.548 | 0.556 | 0.535 | 0.599 | 0.542 | 0.517 | 0.475 | 0.278 | 0.291 | 1.06 | – | 1.07 | 1.05 | 0.607 |
| ABC-1 | 0.492 | 0.416 | 0.351 | 0.507 | 0.555 | – | – | 1.04 | 0.84 | 0.887 | 1.13 | 1.07 | 1.21 | 0.507 | 0.672 | 1.35 | 1.08 | 0.971 | 1.03 | 0.587 |
| BEN | 0.299 | 0.276 | 0.317 | 0.223 | 0.256 | 0.638 | 0.61 | 0.703 | 0.548 | 0.508 | 0.734 | 0.495 | 0.451 | 0.373 | 0.489 | 0.567 | 0.654 | 0.68 | 0.552 | 0.386 |
| CAL-12T | 0.481 | 0.691 | 0.545 | 0.577 | 0.627 | – | – | – | – | – | – | – | – | – | – | 1.16 | – | 1.12 | 1.04 | 1.31 |
| COR-L23 | 0.777 | 0.783 | 0.605 | 0.635 | 0.7 | 0.438 | 0.378 | 0.406 | 0.383 | 0.499 | 0.469 | 0.401 | 0.215 | 0.186 | 0.166 | 1.07 | 1.14 | 0.879 | 1.01 | 1.05 |
| COR-L 105 | 0.609 | 0.616 | 0.6 | 0.468 | 0.744 | 0.665 | 0.652 | 0.698 | 0.541 | 0.669 | 0.669 | 0.512 | 0.596 | 0.432 | 0.377 | 1.06 | 0.865 | 1.25 | 1.17 | 0.781 |
| Calu-6 | – | – | – | – | – | – | – | – | – | – | – | – | – | – | – | 0.902 | 1.03 | 0.918 | 0.903 | 0.865 |
| ChaGo-K-1 | 0.542 | 0.564 | 0.513 | 0.559 | 0.52 | 0.554 | 0.471 | 0.526 | 0.501 | 0.488 | 0.582 | 0.423 | 0.525 | 0.515 | 0.526 | 0.963 | 0.921 | 0.965 | 0.841 | 0.652 |
| EBC-1 | – | – | – | – | – | – | – | – | – | – | – | – | – | – | – | 0.103 | 0.116 | 0.102 | 0.102 | 0.0881 |
| EKVX | 0.615 | 0.73 | 0.705 | – | 0.717 | 0.264 | 0.289 | 0.328 | 0.344 | 0.335 | 0.397 | 0.381 | 0.331 | 0.35 | 0.34 | 0.757 | 0.73 | 0.848 | 0.735 | 0.932 |
| EMC-BAC-2 | 0.37 | 0.37 | 0.386 | – | 0.375 | – | 0.945 | 0.998 | 0.924 | 1.05 | 0.957 | 0.894 | 0.771 | 0.386 | 0.465 | 0.976 | 0.998 | 1.07 | 1.06 | 1.09 |
| EPLC-272H | 0.255 | 0.302 | 0.264 | 0.308 | 0.276 | 0.347 | 0.319 | 0.388 | 0.288 | 0.406 | 0.469 | 0.442 | 0.374 | 0.299 | 0.375 | 0.744 | – | 0.602 | 0.519 | 0.306 |
| H3255 | 0.559 | 0.633 | 0.515 | 0.566 | 0.552 | 0.578 | 0.555 | 0.594 | 0.52 | 0.55 | 0.774 | 0.594 | 0.63 | 0.403 | 0.518 | 1.11 | 0.825 | 0.929 | 0.676 | 0.998 |
| HARA | 0.317 | 0.456 | 0.392 | – | 0.529 | 0.424 | 0.505 | 0.533 | 0.508 | 0.512 | 0.598 | 0.665 | 0.684 | 0.283 | 0.206 | 0.817 | – | 0.845 | 0.902 | 0.708 |
| HCC-15 | 0.622 | 0.651 | 0.621 | 0.563 | 0.599 | 0.537 | 0.558 | 0.633 | 0.608 | 0.575 | 0.608 | 0.516 | 0.446 | 0.427 | 0.507 | 1.1 | 1 | 1.06 | 0.819 | 0.882 |
| HCC-44 | 0.479 | 0.446 | 0.532 | 0.416 | 0.406 | 0.964 | 0.939 | 0.944 | 0.949 | 0.937 | 0.868 | 1.06 | 0.738 | 0.728 | 0.429 | – | – | – | – | – |
| HCC-78 | 0.347 | 0.37 | 0.359 | 0.381 | 0.372 | 0.667 | 0.501 | 0.643 | 0.6 | 0.674 | 0.613 | 0.78 | – | 0.74 | 0.634 | 0.538 | 0.636 | 0.535 | 0.615 | 0.584 |
